These results are taken from ChEMBL document CHEMBL5614417, “Discovery of AMPs from random peptides via deep learning-based model and biological activity validation” (Eur J Med Chem, 2024).

Converted amounts (≈) assume the structure as drawn. The source made the active and inactive calls. Where a SMILES comes first, the peptide text is derived from it.

What is called MIC is the smallest concentration in the dilution series that meets the test's criterion for growth inhibition.

Data set [1] deals with Staphylococcus aureus. As to the kind of experiment: Induction of resistance development against Staphylococcus aureus assessed as fold increase in MIC after 21 passages. The data set is classed as functional.
Data set [2] relates to Cell membrane. Description: Induction of cell membrane damage in Staphylococcus aureus assessed as decrease in red/green fluorescence ratio at 2 times MIC by DiOC2(3) fluorescent probe based assay. The data set is classed as cell membranes.
Data set [3] has as its system Escherichia coli. Description: Antibacterial activity against Escherichia coli ATCC 25922 incubated for 18 hrs in presence of 150 mM NaCl by visual inspection method. The data set is classed as functional.
Data set [4] relates to Staphylococcus aureus. As to the kind of experiment: Antibacterial activity against Staphylococcus aureus ATCC 25923 incubated for 18 hrs in presence of 50 mM NaCl by visual inspection method. The data set is classed as functional.
For data set [5], the system named is Acinetobacter baumannii. As to the kind of experiment: Antibacterial activity against multidrug resistant Acinetobacter baumannii 1 incubated for 18 hrs by visual inspection method. The data set is classed as functional.
Data set [6] concerns Escherichia coli. As to the kind of experiment: Antibacterial activity against ESBL Escherichia coli 5 incubated for 18 hrs by visual inspection method. The data set is classed as functional.
The test system of data set [7] is Staphylococcus epidermidis. As to the kind of experiment: Antibacterial activity against Staphylococcus epidermidis ATCC 12228 incubated for 18 hrs by visual inspection method. The data set is classed as functional.
The subject of data set [8] is Cell membrane. Description: Induction of cell membrane damage in Staphylococcus aureus at 4 times MIC incubated for 30 mins by PI staining based confocal laser scanning microscopic analysis. The data set is classed as cell membranes.
The test system of data set [9] is Staphylococcus aureus. Description: Antibacterial activity against methicillin resistant Staphylococcus aureus 2 incubated for 18 hrs by visual inspection method. The data set is classed as functional.
For data set [10], the system named is Cell membrane. As to the kind of experiment: Induction of cell membrane damage in Escherichia coli assessed as change in morphology by measuring deformed membrane at 4 times MIC incubated for 5 hrs by SEM analysis. The data set is classed as cell membranes.
In data set [11] the test system is Cell membrane. Description: Induction of cell membrane damage in Escherichia coli assessed as change in morphology by measuring roughened membrane at 4 times MIC incubated for 5 hrs by SEM analysis. The data set is classed as cell membranes.
Data set [12] deals with Escherichia coli. Description: Antibacterial activity against ESBL Escherichia coli 1 incubated for 18 hrs by visual inspection method. The data set is classed as functional.
Data set [13] deals with Cell membrane. Description: Induction of cell membrane damage in Staphylococcus aureus assessed as change in morphology by measuring numerous blebs covered membrane at 4 times MIC incubated for 5 hrs by SEM analysis. The data set is classed as cell membranes.
Data set [14] concerns Staphylococcus aureus. As to the kind of experiment: Antibacterial activity against methicillin resistant Staphylococcus aureus 4 incubated for 18 hrs by visual inspection method. The data set is classed as functional.
The subject of data set [15] is Erythrocyte. As to the kind of experiment: Hemolytic activity in rat erythrocytes incubated for 1 hr. The data set is classed as toxicity, cell-based.
Data set [16] relates to Escherichia coli. Description: Antibacterial activity against ESBL Escherichia coli 3 incubated for 18 hrs by visual inspection method. The data set is classed as functional.
The test system of data set [17] is Acinetobacter baumannii. As to the kind of experiment: Antibacterial activity against multidrug resistant Acinetobacter baumannii 5 incubated for 18 hrs by visual inspection method. The data set is classed as functional.
The test system of data set [18] is Cell membrane. Description: Induction of cell membrane damage in Escherichia coli at 4 times MIC incubated for 30 mins by PI staining based confocal laser scanning microscopic analysis. The data set is classed as cell membranes.
For data set [19], the system named is Cell membrane. As to the kind of experiment: Induction of cell membrane damage in Staphylococcus aureus assessed as change in morphology by measuring deformed membrane at 4 times MIC incubated for 5 hrs by SEM analysis. The data set is classed as cell membranes.
Data set [20] concerns Acinetobacter baumannii. As to the kind of experiment: Antibacterial activity against multidrug resistant Acinetobacter baumannii 2 incubated for 18 hrs by visual inspection method. The data set is classed as functional.
Data set [21] concerns Escherichia coli. Description: Antibacterial activity against Escherichia coli ATCC 25922 incubated for 18 hrs in presence of 100 mM NaCl by visual inspection method. The data set is classed as functional.
Data set [22] has as its system Escherichia coli. As to the kind of experiment: Antibacterial activity against Escherichia coli ATCC 25922 incubated for 18 hrs in presence of 50 mM NaCl by visual inspection method. The data set is classed as functional.
Data set [23] relates to Erythrocyte. As to the kind of experiment: Hemolytic activity in rat erythrocytes at 250 ug/ml incubated for 1 hr. The data set is classed as toxicity, cell-based. Particulars: dose 250 µg/ml.
In data set [24] the test system is Staphylococcus aureus. Description: Antibacterial activity against Staphylococcus aureus ATCC 25923 incubated for 18 hrs in presence of 100 mM NaCl by visual inspection method. The data set is classed as functional.
Data set [25] concerns Acinetobacter baumannii. Description: Antibacterial activity against multidrug resistant Acinetobacter baumannii 3 incubated for 18 hrs by visual inspection method. The data set is classed as functional.
Data set [26] deals with Acinetobacter baumannii. As to the kind of experiment: Antibacterial activity against Acinetobacter baumannii ATCC 19606 incubated for 18 hrs by visual inspection method. The data set is classed as functional.
Data set [27] deals with Cell membrane. As to the kind of experiment: Induction of cell membrane damage in Staphylococcus aureus assessed as decrease in red/green fluorescence ratio by DiOC2(3) fluorescent probe based assay. The data set is classed as cell membranes.
Data set [28] has as its system Staphylococcus aureus. Description: Antibacterial activity against Staphylococcus aureus ATCC 25923 incubated for 18 hrs by visual inspection method. The data set is classed as functional.
Data set [29] relates to Staphylococcus aureus. As to the kind of experiment: Antibacterial activity against methicillin resistant Staphylococcus aureus 1 incubated for 18 hrs by visual inspection method. The data set is classed as functional.
The test system of data set [30] is Escherichia coli. Description: Antibacterial activity against ESBL Escherichia coli 2 incubated for 18 hrs by visual inspection method. The data set is classed as functional.
Data set [31] deals with Staphylococcus aureus. Description: Antibacterial activity against methicillin resistant Staphylococcus aureus 3 incubated for 18 hrs by visual inspection method. The data set is classed as functional.
The nature of data set [32]: Stability in Sprague-Dawley rat serum at 62.5 ug/ml measured upto 480 mins by RP-HPLC method. Particulars: 8 h, at 62.5 µg/mL. The data set is classed as ADME, cell-free.
Data set [33] deals with Erythrocyte. Description: Hemolytic activity in rat erythrocytes at 500 to 1000 ug/ml incubated for 1 hr. Particulars: dose 500-1000 µg/ml. The data set is classed as toxicity, cell-based.
For data set [34], the system named is Staphylococcus aureus. Description: Antibacterial activity against Staphylococcus aureus ATCC 25923 incubated for 18 hrs in presence of 150 mM NaCl by visual inspection method. The data set is classed as functional.
A short description of data set [35]: Hemolytic activity in rat erythrocytes at 1000 ug/ml incubated for 1 hr. The data set is classed as toxicity, cell-based, Erythrocyte. As to conditions: at 1000 µg/mL, read-out: Activity.
For data set [36], the system named is Klebsiella pneumoniae. As to the kind of experiment: Antibacterial activity against Klebsiella pneumoniae ATCC 700603 incubated for 18 hrs by visual inspection method. The data set is classed as functional.
In data set [37] the test system is Cell membrane. Description: Induction of inner membrane permeability in Escherichia coli ML-35 measured every 5 mins for 90 mins by ONPG dye based assay. The data set is classed as cell membranes.
The subject of data set [38] is Escherichia coli. As to the kind of experiment: Antibacterial activity against ESBL Escherichia coli 4 incubated for 18 hrs by visual inspection method. The data set is classed as functional.
The subject of data set [39] is Cell membrane. Description: Induction of cell membrane damage in Escherichia coli assessed as change in morphology by measuring numerous blebs covered membrane at 4 times MIC incubated for 5 hrs by SEM analysis. The data set is classed as cell membranes.
Data set [40] has as its system Cell membrane. Description: Disruption of outer membrane integrity in Escherichia coli assessed as increase in fluorescence intensity by measuring NPN uptake at 1 to 4 times MIC by fluorescence based analysis. The data set is classed as cell membranes. As to conditions: TDE = time-dependent effect.
In data set [41] the test system is Acinetobacter baumannii. Description: Antibacterial activity against multidrug resistant Acinetobacter baumannii 4 incubated for 18 hrs by visual inspection method. The data set is classed as functional.
Data set [42] concerns Cell membrane. As to the kind of experiment: Induction of cell membrane damage in Staphylococcus aureus assessed as change in morphology by measuring roughened membrane at 4 times MIC incubated for 5 hrs by SEM analysis. The data set is classed as cell membranes.
The test system of data set [43] is Bacillus subtilis. Description: Antibacterial activity against Bacillus subtilis ATCC 23857 incubated for 18 hrs by visual inspection method. The data set is classed as functional.
The subject of data set [44] is Cell membrane. Description: Induction of inner membrane permeability in Escherichia coli ML-35 at 1 to 4 times MIC by ONPG dye based assay. Particulars: TDE = time-dependent effect. The data set is classed as cell membranes.
For data set [45], the system named is Cell membrane. As to the kind of experiment: Disruption of outer membrane integrity in Escherichia coli assessed as increase in fluorescence intensity by measuring NPN uptake measured every min for 15 mins by fluorescence based analysis. The data set is classed as cell membranes.
Data set [46] concerns Escherichia coli. Description: Antibacterial activity against Escherichia coli ATCC 25922 incubated for 18 hrs by visual inspection method. The data set is classed as functional.

Consider `O=C(O)c1cn(C2CC2)c2cc(N3CCNCC3)c(F)cc2c1=O`, for which the fold change (FC) in data set [1] is 16.
In the case of `CC[C@H](C)[C@H](NC(=O)[C@@H](N)CCCNC(=N)N)C(=O)NCC(=O)N[C@@H](Cc1c[nH]c2ccccc12)C(=O)N[C@@H](CS)C(=O)N[C@@H](C)C(=O)N[C@@H](Cc1c[nH]c2ccccc12)C(=O)N[C@@H](CC(C)C)C(=O)N[C@@H](CC(C)C)C(=O)N[C@@H](CCCCN)C(=O)N[C@@H](CC(N)=O)C(=O)N[C@@H](CCCCN)C(=O)N[C@@H](C)C(N)=O` (H-RIGWCAWLLKNKA-NH2), the outcome in data set [2], in data set [8], in data set [10], in data set [11], in data set [13] and in data set [18] was Active. Also, the outcome in data set [19], in [39] and in data set [42] was Active. For the same compound, the minimum inhibitory concentration (MIC) in data set [3] amounted to 30 µg/mL; in data set [4], 60 µg/mL; in data set [5], 15 µg/mL (≈ 9.63 µM); in data set [6] it was 30 µg/mL (≈ 19.3 µM); in [7], 15 µg/mL (≈ 9.63 µM); in [9], 60 µg/mL (≈ 38.5 µM). The minimum inhibitory concentration (MIC) in [12] worked out at 30 µg/mL (≈ 19.3 µM); in data set [14], 60 µg/mL (≈ 38.5 µM); in data set [16], 30 µg/mL (≈ 19.3 µM); in [17], 15 µg/mL (≈ 9.63 µM); in data set [20] it was 15 µg/mL (≈ 9.63 µM); in [21] it was 30 µg/mL. Also, the MIC was found to be 30 µg/mL in [22]; 60 µg/mL in data set [24]; 15 µg/mL (≈ 9.63 µM) in data set [25]; 15 µg/mL (≈ 9.63 µM) in data set [26]; 60 µg/mL (≈ 38.5 µM) in data set [28]; 60 µg/mL (≈ 38.5 µM) in data set [29]. Also, the minimal inhibitory concentration (MIC) was 30 µg/mL (≈ 19.3 µM) in [30]; 60 µg/mL (≈ 38.5 µM) in data set [31]; 60 µg/mL in [34]; 60 µg/mL (≈ 38.5 µM) in [36]; 30 µg/mL (≈ 19.3 µM) in [38]; 15 µg/mL (≈ 9.63 µM) in data set [41]. Also, the MIC stood at 15 µg/mL (≈ 9.63 µM) in data set [43] and 30 µg/mL (≈ 19.3 µM) in data set [46]. The HC5 in data set [15] was 779.41 µg/mL. Also, the Activity result in [23] is “Non-Toxic”; in data set [27], “Dose-Dependent Effect”; in data set [33] it was “Toxic”; in data set [37], “Dose-Dependent Effect”; in data set [40] it was “Tde”; in [44] it was “Tde”. For the same compound, the Activity entry in data set [45] was “Dose-Dependent Effect”. Also, the Stability entry in data set [32] is “Unstable”. For the same compound, the hemolysis at 1 h, 1000 ug/ml in [35] is 8.18%.
